Values after ≈ are worked out from the molar mass of the structure shown. Where two headings read alike, the source gives them in different places.
How the values were obtained:
ATX [1] = tested on: ATX; parameters: method as in PMID 23688339; details: read-out: IC50 (inhibitory properties); cited from earlier work
LPA plasma levels = details: cited from earlier work
[2] = Chrom logD determination by gradient HPLC (CHI); type: physicochemical; details: reversed-phase HPLC, Phenomenex Luna C18 column; pH 7.4, Luna C18 column
Method: clogP values were calculated for all compounds using the Percepta software. Chrom logD was determined experimentally using a procedure described in the supplementary data. Furthermore, the correlation between calculated clogP values and experimentally determined Chrom log D values were explored for molecules containing boron functional groups such as boronic acids and benzoxaboroles.
Chrom logD values were determined from the following equation: Chrom logD = 0.0857 × CHI − 2 [39]. Chromatographic hydrophobic index (CHI) values were determined from the gradient retention times (RT). These values approximately corresponded to the volume percentage of organic component in the mobile phase when the compound elutes. CHI values were determined at pH 7.4. Chromatograms were obtained using on Agilent 1100 Series liquid chromatography system with an HPLC diode-array detector (DAD) coupled with a Micromass Quattro micro atmosphere pressure ionization (API) mass spectrometer. The column used for analyses was Phenomenex Luna C18 (50 × 3 mm, 5 µm, 100 Å). The column was maintained at 25 °C. The flow rate was 1.0 mL/min. The mobile phase was composed of 50 mM ammonium acetate in water at pH 7.4 (solvent A) and acetonitrile (solvent B). The solvent gradient condition was initially 0.5% B, and then it increased linearly to 100% B over 3.0 min, remaining at 100% B for 0.5 min, then decreasing linearly to 0% B over 0.2 min followed by an equilibration period of 1.3 min prior to the next injection. The total experimental duration was 5 min. Injection volume was 2.0 µl. Samples temperature was maintained at 15 °C in the autosampler chamber. A group of ten standard compounds having different CHI values was used for calibration of RP-HPLC [40].

[3] = metabolic stability in rat liver microsomes; type: in vitro ADME
Method: (§1) Metabolic stability was assessed in rat and human liver microsomes, with testosterone and propranolol as positive controls. All compounds, at a final concentration of 1 μM (0.03% DMSO), were incubated in a phosphate buffer (50 mM, pH 7.4) for 60 min at 37 °C, together with liver microsomes in the absence and presence of NADPH generating system (nicotinamide adenine dinucleotide phosphate (NADP, 2 mM), glucose-6-phosphate (20 mM), glucose-6-phosphate dehydrogenase (6U) and magnesium chloride (2 mM)). Aliquots were taken at different time points (0, 10, 20, 30, 45 and 60 min), followed by reaction termination by addition of CH3CN:CH3OH 2:1 v/v, containing diclofenac as internal standard (IS). Samples were then centrifuged (at 2000 rpm at 4 °C for 30 min), and resulting supernatants were subjected to LC/MS/MS analysis. The in vitro half-life was calculated in GraphPadPrism software from % remaining vs. time regression using non-linear regression fit. In vitro intrinsic clearance, expressed as mL/min/g liver, was determined from in vitro half-life and normalized for the protein concentration in the incubation mixture, assuming a 52.5 mg/g liver.

[4] = in vitro plasma stability, rat plasma; type: in vitro ADME; details: after 4 h
Method: (§2) The in vitro plasma stability of the test compounds was studied in human and rat plasma with propranolol, benflorex, and eucatropine as control substances. All compounds at final concentrations of 5 μM (0.5% DMSO) were incubated in a phosphate buffer (50 mM, pH 7.4) for 4 h at 37 °C together with plasma. Aliquots were taken at different time points (0, 30, 120 min and 4 h), followed by reaction termination by the addition of CH3CN:CH3OH 2:1 v/v., which contained diclofenac and warfarin as internal standards (IS). Samples were then centrifuged (at 1600 rpm at 4 °C for 30 min), and the resulting supernatants were subjected to LC/MS/MS analysis. Results are expressed as % remaining.

[5] = plasma protein binding, equilibrium dialysis, rat plasma; type: in vitro ADME; details: pH 7.4, rat plasma
Method: (§3) Plasma protein binding was measured using the equilibrium dialysis technique. Positive controls included in this assay were: Acebutolol (low binding) and nicardipine (very high binding). The assay was performed in a 96-well Teflon dialysis unit, where each well consisted of two chambers separated by a dialysis membrane. Plasma (human and rat, commercially obtained from Seralab) spiked with each compound (final concentration: 5 µM, 0.5% DMSO) were added to one chamber, and a blank buffer solution (60 mM Na2HPO4/14 mM KH2PO4/70 mM NaCl; pH 7.4) was added to the other side of the well. Each compound was analyzed in duplicate, for 4 h at 37 °C. After 4 h, both the plasma (free and bound fraction) and buffer (only free fraction) side of the well were sampled, matrix matched, then precipitated with a STOP solution (CH3CN:CH3OH 2:1 v/v, containing diclofenac as internal standard), and centrifuged at 2000 rpm for 30 min (+4 °C). The resulting supernatants were analyzed by LC-MS/MS. The fraction bound was calculated as the concentration difference (analyte vs. internal standard peak area ratio) in the plasma and buffer sides divided by the total concentration in the plasma side. Sampling was also performed from spiked plasma at t = 0 min in order to determine recovery, i.e., % of compound detected at t = 4 h in both the plasma and buffer chambers divided by the compound detected at t = 0 min.

[6] = kinetic solubility, turbidimetric method; type: physicochemical; details: 37 °C, pH 7.4, aqueous buffer, kinetic from dmso stock, Solubility (kinetic solubility range)
Method: Turbidimetric solubility allows for a rapid determination of kinetic solubility by using small amounts of the test compound. Assay controls were α-naphtoflavone (low solubility) and sulfaphenazole (expected solubility >100µM). DMSO stock solutions (10 mM) of each compound were first serially diluted 1 in 3 in DMSO and then spiked into an aqueous buffer (100 mM PBS), resulting in 5 following final concentration: 100, 30, 10, 3 and 1 µM (each concentration was tested in duplicate). […] Compound samples were compared to a solvent control in an aqueous buffer (DMSO 1% final concentration), and a significant increase of sample absorbance was considered to have occurred when the absorbance reached a 3-fold standard deviation of the average DMSO absorbance. The calculation of solubility range data was made by Excel tool software. Results are expressed as an estimated solubility range.

[7] = in vitro plasma stability, human plasma; type: in vitro ADME; details: after 4 h
Method: as §2

[8] = metabolic stability in human liver microsomes; type: in vitro ADME
Method: as §1

Autotaxin (ATX) = biological target: T1, Autotaxin (ATX) (Homo sapiens, UniProt Q13822); assay: biochemical choline detection assay for ATX inhibition, LysoPC substrate; details: choline release assay using as a substrate; mean standard deviation from duplicate experiments
T1 construct: we added 10 μL of recombinant ATX (2 ng/mL) in a Tris–HCl buffer
Method: All 21 new benzoxaboroles derivatives prepared herein were evaluated for ATX inhibition in vitro using a biochemical choline detection assay, combining elements of assays already described in the literature.
[…] Mother plates with serial dilutions of compounds in pure DMSO were prepared from 10 mM DMSO stock solutions. Storplate-384-deep-well-V plates (Perkin Elmer) were also used for mother plate preparation. Compounds were diluted in a DMSO in a ratio of 1:3. An aliquot of 200 nL of compound solution was transferred from the mother plate to the test plate with a Mosquito nanoliter liquid handling system (TTP labtech). The assay was performed in Spectra-Plate-384 TC, transparent, (Perkin Elmer, Cat#6007658) using a 20 µL assay volume. The total final percentage of DMSO in the test media was 1%. Compounds were tested at 11 consecutive three-fold dilutions starting from 50 µM (final concentrations) in duplicate, covering range of 0.0008–50 μM to determine IC50 values. […] After dispensing of compounds directly to the dry plate, we added 10 μL of recombinant ATX (2 ng/mL) in a Tris–HCl buffer (140 mM NaCl, 1mM MgCl2, 5 mM KCl, 3 mM CaCl2, 1 mg/ml bovin serum albumin (BSA, fatty acid free) and 100 mM Tris–HCl, pH 9). […] The above-described solution with dimethyl sulfoxide but without the test compound was used as a control. LysoPC without ATX was used as a control for the autohydrolysis of LysoPC. After 1.5 h of incubation, 20 μL of stop solution and developer was added {Choline oxidase (1.2 U/mL), Peroxidase (1.2 U/mL), TOOS (2.7 mM), 4-Aminoantipyrine (2.7 mM), and EDTA (50 mM)} to the reaction mixture, and absorbance was measured after 30 min of incubation. The absorbance was measured by using Perkin-Elmer EnVision plate reader (λ = 555 nm). Data were analyzed using GraphPad Prism software. The calculation of IC50 data, curves and quality control (QC) analysis was made by using Excel tools and GraphPadPrism software. Briefly, individual concentration–effect curves were generated by plotting the logarithm of the tested concentration of tested compounds (X) vs. corresponding percentage inhibition values (Y) using a least squares (ordinary) fit. […] QC criteria parameters (Z,’ S:B, ΔmP) were checked for every plate.

[9] = plasma protein binding, equilibrium dialysis, human plasma; type: in vitro ADME; details: pH 7.4, read-out: PPB: fraction bound, human (converted)
Method: as §3

ATX [10] = details: read-out: reported activity in in vitro LPC choline release assay; cited from earlier work
[11] = tested on: A2058 human melanoma cells; details: dose-dependent manner; cited from earlier work
[12] = cited from earlier work
[13] = parameters: method as in PMID 23688339; details: cited from earlier work
glioma tumor = tested on: glioma tumor; parameters: method as in PMID 30462853; details: in vivo; cited from earlier work
glioblastoma cell lines = tested on: glioblastoma cell lines; parameters: method as in PMID 30462853; details: cited from earlier work
[14] = read-out: PPB: fraction bound, rat (converted)
[15] = mice, intravenous administration 1 nmol/g

| Compound | LMS: predicted in vivo hepatic clearance, rat [3] [%LBF] | PS (plasma stability), rat [4] [%remaining] | fraction unbound at 4 h, 5 µM [5, 14] | PS (plasma stability), human [7] [%remaining] | LMS: predicted in vivo hepatic clearance, human [8] [%LBF] | fraction unbound at 4 h, 5 µM [9] | half-life in vivo [12] | LPA in the in vivo study (LPA plasma levels) | further results |
| --- | --- | --- | --- | --- | --- | --- | --- | --- | --- |
| O=C1N=C(N2CCN(Cc3cccc(B(O)O)c3)CC2)SC1=Cc1ccc(Cl)c(Cl)c1 [Compound 3BoA] |  |  |  |  |  |  |  |  | IC50 (ATX [1]): 0.013 µM; LPA plasma levels (LPA plasma levels; mice, 4 mg/kg i.v. injection): significantly decreases LPA plasma levels (almost to zero); plasma LPA levels (LPA plasma levels; mice, 4 mg/kg intravenous administration): decreases rapidly plasma LPA levels |
| Cc1cc(C)cc(COC(=O)N2CCN(C3CN(C(=O)c4ccc5c(c4)B(O)OC5)C3)CC2)c1 [Compound 45, (3,5-dimethylphenyl)methyl 4-[1-(1-hydroxy-3H-2,1-benzoxaborole-6-carbonyl)azetidin-3-yl]piperazine-1-carboxylate] | 61 | 68.6 | 0.056 | 72.8 | 84 | 0.041 |  |  | chromatographic logD [2]: 4.17; solubility kinetic at 1 h [6]: > 100 µM; IC50 (Autotaxin (ATX)): 1 ± 1.15 µM |
| O=C1S/C(=C\c2ccc(OCc3cccc(B(O)O)c3)cc2)C(=O)N1Cc1ccc(F)cc1 [HA130] |  |  |  |  |  |  | less than five | lowering LPA significantly | IC50 (ATX [10]): 0.028 µM; ATX-mediated migration of A2058 human melanoma cells [11]: inhibited; LPA levels in the plasma (LPA plasma levels; [15]): rapid decrease of LPA levels; toxicity (LPA plasma levels; [15]): no overt toxicity issues observed |
| O=C1S/C(=C\c2ccc(OCc3ccc(B(O)O)cc3)cc2)C(=O)N1Cc1ccc(F)cc1 [HA155, reference compound] | < 30 | 65.7 | 0.001 | 42.9 | 54 | < 0.001 | less than five | lowering LPA significantly | Solubility, value taken from literature [13]: 6.8 µM (≈ 3.15 µg/mL); fraction unbound at 4 h, 5 µM ([5]; read-out: fraction unbound, rat plasma): 0.004 |
| O=C(CCN1CCN(C(=O)OCc2cc(Cl)cc(Cl)c2)CC1)c1ccc2[nH]c(=O)oc2c1 [PF-8380] |  |  |  |  |  |  |  |  | glioma tumor growth progression (glioma tumor): delaying simultaneously glioma tumor growth progression; anti-invasive effect (glioblastoma cell lines): significant anti-invasive effect |

Source: PMC6804080, “Benzoxaboroles—Novel Autotaxin Inhibitors” (Molecules, 2019)
